Assay results taken from patent US9018214B2, “Bicyclic heterocycle compounds and their uses in therapy” (Astex Therapeutics Limited, priority 2011, dated 2015).
Where a name gives a salt, the structure may show the parent alone. Read-outs that look alike come from different tables or passages of the source.

Key:
[1] = target: BIR3 domain of human XIAP (residues 252-350) (Homo sapiens (Human), UniProt P98170); experiment: XIAP in vitro competitive displacement binding assay (fluorescence polarization); conditions: for IC50: read-out: IC50 or PI Xiap: IC50; for inhibition at 0.04 µM: 1 h, read-out: IC50 or PI Xiap: PI
[2] = system: EVSA-T (human breast carcinoma); experiment: Anti-proliferative activity, Alamar Blue assay, EVSA-T; assay type: cell-based; conditions: Homo sapiens, EVSA-T, read-out: EVSA-T prolif (EC50)
[3] = target: BIR3 domain of human cIAP-1 (residues 267-363) (Homo sapiens (Human), UniProt Q13490); experiment: cIAP-1 in vitro competitive displacement binding assay (fluorescence polarization; Probe A AVPIK(5&6FAM)-amide or Probe B AbuRPFK(5&6FAM)-amide); conditions: for inhibition at […]: 3 h, read-out: IC50 or PI cIAP1: PI
[4] = read-out: IC50 or PI cIAP1: IC50

Structure (SMILES): C[C@@H]1CN(CC(=O)N2CC(C)(C)c3ncc(C(C)(F)F)cc32)[C@@H](CN2CCc3cccnc32)CN1 [Example 222, 1-[6-(1,1-Difluoroethyl)-3,3-dimethyl-1H,2H,3H-pyrrolo[3,2-b]pyridin-1-yl]-2-[(2R,5R)-5-methyl-2-{1H,2H,3H-pyrrolo[2,3-b]pyridin-1-ylmethyl}piperazin-1-yl]ethan-1-one dihydrochloride]
- IC50 [1]: 220 nM
- EC50 ([2]; 72 h): 9600 nM
- IC50 [3]: < 1000 nM
- IC50 [3, 4]: 140 nM

Structure (SMILES): CCCC(F)(F)c1cnc2c(c1)N(C(=O)CN1C[C@@H](C)NC[C@@H]1CN1CC[C@@H](F)C1)CC2(C)C [Example 223, 1-[6-(1,1-Difluorobutyl)-3,3-dimethyl-1H,2H,3H-pyrrolo[3,2-b]pyridin-1-yl]-2-[(2R,5R)-2-{[(3R)-3-fluoropyrrolidin-1-yl]methyl}-5-methylpiperazin-1-yl]ethan-1-one hydrochloride]
- IC50 [1]: 120 nM
- EC50 ([2]; 72 hours, Alamar Blue): 81 nM
- inhibition at […] ([3]; Probe B, @ 0.012 μM): 62%

Structure (SMILES): C[C@@H]1CN(CC(=O)N2CC(C)(C)c3cnc(C(F)(F)c4ccccc4)cc32)[C@@H](CN2CCOCC2)CN1 [Example 224, 1-{6-[Difluoro(phenyl)methyl]-3,3-dimethyl-1H,2H,3H-pyrrolo[3,2-c]pyridin-1-yl}-2-[(2R,5R)-5-methyl-2-(morpholin-4-ylmethyl)piperazin-1-yl]ethan-1-one dihydrochloride]
- inhibition at 0.04 µM [1]: 77%
- EC50 ([2]; 72 hours, Alamar Blue): 19 nM
- inhibition at […] [3]: 83%

Structure (SMILES): CC(C)CC(F)(F)c1cc2c(cn1)C(C)(C)CN2C(=O)CN1C[C@@H](C)NC[C@@H]1CN1CCCC1=O [Example 225, 1-{[(2R,5R)-1-{2-[6-(1,1-Difluoro-3-methylbutyl)-3,3-dimethyl-1H,2H,3H-pyrrolo[3,2-c]pyridin-1-yl]-2-oxoethyl}-5-methylpiperazin-2-yl]methyl}pyrrolidin-2-one hydrochloride]
- inhibition at 0.04 µM ([1]; @ 0.04 μM): 62%
- EC50 ([2]; 72 hours, Alamar Blue): 48 nM
- inhibition at […] ([3]; Probe B, @ 0.012 μM): 72%

Structure (SMILES): C[C@@H]1CN(CC(=O)N2CC(C)(C)c3ncc(C(F)(F)C4CCC4)cc32)[C@@H](CN2CCCC2=O)CN1 [Example 226, 1-{[(2R,5R)-1-{2-[6-(Cyclobutyldifluoromethyl)-3,3-dimethyl-1H,2H,3H-pyrrolo[3,2-b]pyridin-1-yl]-2-oxoethyl}-5-methylpiperazin-2-yl]methyl}pyrrolidin-2-one dihydrochloride]
- IC50 [1]: 46 nM
- EC50 ([2]; 72 h): 400 nM
- IC50 [3]: < 1000 nM
- IC50 [3, 4]: 21 nM

Structure (SMILES): CCCC(F)(F)c1cc2c(cn1)C(C)(C)CN2C(=O)CN1C[C@@H](C)NC[C@@H]1CN1CCCC1=O [Example 227, 1-{[(2R,5R)-1-{2-[6-(1,1-Difluorobutyl)-3,3-dimethyl-1H,2H,3H-pyrrolo[3,2-c]pyridin-1-yl]-2-oxoethyl}-5-methylpiperazin-2-yl]methyl}pyrrolidin-2-one hydrochloride]
- inhibition at 0.04 µM ([1]; @ 0.04 μM): 60%
- EC50 ([2]; 72 hours, Alamar Blue): 27 nM
- inhibition at […] ([3]; Probe B, @ 0.012 μM): 78%

Structure (SMILES): C[C@@H]1CN(CC(=O)N2CC(C)(C)c3ncc(C(C)(F)F)cc32)[C@@H](CN2CCN(C)C(=O)C2)CN1 [Example 228, 4-{[(2R,5R)-1-{2-[6-(1,1-Difluoroethyl)-3,3-dimethyl-1H,2H,3H-pyrrolo[3,2-b]pyridin-1-yl]-2-oxoethyl}-5-methylpiperazin-2-yl]methyl}-1-methylpiperazin-2-one dihydrochloride]
- IC50 [1]: 99 nM
- EC50 ([2]; 72 h): 680 nM
- IC50 [3]: < 1000 nM
- IC50 [3, 4]: 24 nM

Structure (SMILES): CC(C)CC(F)(F)c1cc2c(cn1)C(C)(C)CN2C(=O)CN1C[C@@H](C)NC[C@@H]1CN1CCOCC1 [Example 229, 1-[6-(1,1-Difluoro-3-methylbutyl)-3,3-dimethyl-1H,2H,3H-pyrrolo[3,2-c]pyridin-1-yl]-2-[(2R,5R)-5-methyl-2-(morpholin-4-ylmethyl)piperazin-1-yl]ethan-1-one hydrochloride]
- inhibition at 0.04 µM ([1]; @ 0.04 μM): 53%
- EC50 ([2]; 72 hours, Alamar Blue): 38 nM
- inhibition at […] ([3]; Probe B, @ 0.012 μM): 73%

Structure (SMILES): C[C@@H]1CN(CC(=O)N2CC(C)(C)c3ncc(C(F)(F)CC4CC4)cc32)[C@@H](CN2CCCC2=O)CN1 [Example 230, 1-{[(2R,5R)-1-{2-[6-(2-Cyclopropyl-1,1-difluoroethyl)-3,3-dimethyl-1H,2H,3H-pyrrolo[3,2-b]pyridin-1-yl]-2-oxoethyl}-5-methylpiperazin-2-yl]methyl}pyrrolidin-2-one formate]
- inhibition at 0.04 µM [1]: 53%
- EC50 ([2]; 72 hours, Alamar Blue): 110 nM
- inhibition at […] [3]: 60%

Structure (SMILES): C[C@@H]1CN(CC(=O)N2CC(C)(C)c3ncc(C(F)(F)CC4CC4)cc32)[C@@H](CN2CCOCC2)CN1 [Example 231, 1-[6-(2-Cyclopropyl-1,1-difluoroethyl)-3,3-dimethyl-1H,2H,3H-pyrrolo[3,2-b]pyridin-1-yl]-2-[(2R,5R)-5-methyl-2-(morpholin-4-ylmethyl)piperazin-1-yl]ethan-1-one dihydrochloride]
- IC50 [1]: 65 nM
- EC50 ([2]; 72 h): 67 nM
- IC50 [3]: < 1000 nM
- IC50 [3, 4]: 9.5 nM

Structure (SMILES): C[C@@H]1CN(CC(=O)N2CC(C)(C)c3ncc(C(F)(F)c4ccccc4)cc32)[C@@H](CN2CCOCC2)CN1 [Example 232, 1-{6-[Difluoro(phenyl)methyl]-3,3-dimethyl-1H,2H,3H-pyrrolo[3,2-b]pyridin-1-yl}-2-[(2R,5R)-5-methyl-2-(morpholin-4-ylmethyl)piperazin-1-yl]ethan-1-one dihydrochloride]
- inhibition at 0.04 µM [1]: 48%
- EC50 ([2]; 72 hours, Alamar Blue): 36 nM
- inhibition at […] [3]: 77%

Structure (SMILES): CCCC(F)(F)c1cc2c(cn1)C(C)(C)CN2C(=O)CN1C[C@@H](C)NC[C@@H]1Cc1nccs1 [Example 233, 1-[6-(1,1-Difluorobutyl)-3,3-dimethyl-1H,2H,3H-pyrrolo[3,2-c]pyridin-1-yl]-2-[(2S,5R)-5-methyl-2-(1,3-thiazol-2-ylmethyl)piperazin-1-yl]ethan-1-one hydrochloride]
- IC50 [1]: 76 nM
- EC50 ([2]; 72 hours, Alamar Blue): 91 nM
- inhibition at […] ([3]; Probe B, @ 0.012 μM): 62%

Structure (SMILES): C[C@@H]1CN(CC(=O)N2CC(C)(C)c3ncc(Cc4ccc(F)cc4F)cc32)[C@@H](CN2CCOCC2)CN1 [Example 236, 1-{6-[(2,4-Difluorophenyl)methyl]-3,3-dimethyl-1H,2H,3H-pyrrolo[3,2-b]pyridin-1-yl}-2-[(2R,5R)-5-methyl-2-(morpholin-4-ylmethyl)piperazin-1-yl]ethan-1-one dihydrochloride]
- IC50 [1]: 58 nM
- EC50 ([2]; 72 h): 7.8 nM
- inhibition at […] [3]: 96%

Structure (SMILES): C[C@@H]1CN(CC(=O)N2CC(C)(C)c3cnc(Cc4ccc(F)cc4)cc32)[C@@H](CN2CCOCC2)CN1 [Example 237, 1-{6-[(4-Fluorophenyl)methyl]-3,3-dimethyl-1H,2H,3H-pyrrolo[3,2-c]pyridin-1-yl}-2-[(2R,5R)-5-methyl-2-(morpholin-4-ylmethyl)piperazin-1-yl]ethan-1-one hydrochloride]
- IC50 [1]: 55 nM
- EC50 ([2]; 72 hours, Alamar Blue): 4.6 nM
- inhibition at […] ([3]; Probe B, @ 0.012 μM): 97%

Structure (SMILES): CCCC(F)(F)c1cc2c(cn1)C(C)(C)CN2C(=O)CN1C[C@@H](C)NC[C@@H]1CN1CCOCC1 [Example 239, 1-[6-(1,1-Difluorobutyl)-3,3-dimethyl-1H,2H,3H-pyrrolo[3,2-c]pyridin-1-yl]-2-[(2R,5R)-5-methyl-2-(morpholin-4-ylmethyl)piperazin-1-yl]ethan-1-one hydrochloride]
- inhibition at 0.04 µM ([1]; @ 0.04 μM): 52%
- EC50 ([2]; 72 hours, Alamar Blue): 32 nM
- inhibition at […] ([3]; Probe B, @ 0.012 μM): 72%

Structure (SMILES): C[C@@H]1CN(CC(=O)N2CC(C)(C)c3cnc(Cc4ccccc4F)cc32)[C@@H](CN2CCCC2=O)CN1 [Example 242, 1-{[(2R,5R)-1-(2-{6-[(2-Fluorophenyl)methyl]-3,3-dimethyl-1H,2H,3H-pyrrolo[3,2-c]pyridin-1-yl}-2-oxoethyl)-5-methylpiperazin-2-yl]methyl}pyrrolidin-2-one hydrochloride]
- inhibition at 0.04 µM ([1]; @ 0.04 μM): 65%
- EC50 ([2]; 72 hours, Alamar Blue): 13 nM
- inhibition at […] ([3]; Probe B, @ 0.012 μM): 92%

Structure (SMILES): C[C@@H]1CN(CC(=O)N2CC(C)(C)c3ncc(Cc4ccc(F)cc4)cc32)[C@@H](CN2C[C@@H](C)O[C@@H](C)C2)CN1 [Example 243, 2-[(2R,5R)-2-{[(2R,6S)-2,6-Dimethylmorpholin-4-yl]methyl}-5-methylpiperazin-1-yl]-1-{6-[(4-fluorophenyl)methyl]-3,3-dimethyl-1H,2H,3H-pyrrolo[3,2-b]pyridin-1-yl}ethan-1-one dihydrochloride]
- IC50 [1]: 47 nM
- EC50 ([2]; 72 h): 25 nM
- inhibition at […] [3]: 100%

Structure (SMILES): C[C@@H]1CN(CC(=O)N2CC(C)(C)c3cnc(Cc4ccccc4F)cc32)[C@@H](CN2CCOC[C@H]2C)CN1 [Example 244, 1-{6-[(2-Fluorophenyl)methyl]-3,3-dimethyl-1H,2H,3H-pyrrolo[3,2-c]pyridin-1-yl}-2-[(2R,5R)-5-methyl-2-{[(3R)-3-methylmorpholin-4-yl]methyl}piperazin-1-yl]ethan-1-one hydrochloride]
- inhibition at 0.04 µM ([1]; @ 0.04 μM): 67%
- EC50 ([2]; 72 hours, Alamar Blue): 2.2 nM
- inhibition at […] ([3]; Probe B, @ 0.012 μM): 98%

Structure (SMILES): C[C@@H]1CN(CC(=O)N2CC(C)(C)c3cnc(Cc4ccccc4F)cc32)[C@@H](CN2CCOCC2)CN1 [Example 245, 1-{6-[(2-Fluorophenyl)methyl]-3,3-dimethyl-1H,2H,3H-pyrrolo[3,2-c]pyridin-1-yl}-2-[(2R,5R)-5-methyl-2-(morpholin-4-ylmethyl)piperazin-1-yl]ethan-1-one hydrochloride]
- IC50 [1]: 47 nM
- EC50 ([2]; 72 hours, Alamar Blue): 4.2 nM
- inhibition at […] ([3]; Probe B, @ 0.012 μM): 86%

Structure (SMILES): CCCC(F)(F)c1cnc2c(c1)N(C(=O)CN1C[C@@H](C)NC[C@@H]1CN1C[C@@H](C)O[C@@H](C)C1)CC2(C)C [Example 246, 1-[6-(1,1-Difluorobutyl)-3,3-dimethyl-1H,2H,3H-pyrrolo[3,2-b]pyridin-1-yl]-2-[(2R,5R)-2-{[(2R,6S)-2,6-dimethylmorpholin-4-yl]methyl}-5-methylpiperazin-1-yl]ethan-1-one dihydrochloride]
- IC50 [1]: 43 nM
- EC50 ([2]; 72 h): 31 nM
- inhibition at […] [3]: 76%
